Measured values as given in patent US12213984B2, “Immunoregulatory agent” (KYUSHU UNIVERSITY, NATIONAL UNIVERSITY CORPORATION, priority 2015, dated 2025).

Tested on: T cells (mouse spleen cells)
Assay: lymphocyte migration assay using transwell (CCL21)
Type: cell-based
Conditions: CCL21 300 ng/mL
Procedure: The influence of cholesterol 3-sulfate on the migration of T cells was examined. As a control, an experiment using T cells derived from a DOCK2 knockout mouse was also performed. More specifically, first, mouse spleen cells (1×10^7 cells/mL) were cultured for 1 hour at 37° C. in 0.5% BSA-containing RPMI-1640 (transwell medium) in the presence of cholesterol 3-sulfate at a predetermined concentration or in the presence of DMSO alone (control). The concentration of DMSO was adjusted such that the final concentration of DMSO became 0.2% in all samples. Then, a transwell medium containing chemokine CCL21 (300 ng/mL) and cholesterol 3-sulfate at a predetermined concentration was added to a 24-well plate, and then a transwell (with 5 μm pores, Corning) was set in the well so as to load the pre-cultured cells (1×10^6 cells/100 μL). Subsequently, the cells were incubated for 2 hours at 37° C., and the cells that moved to the lower chamber were collected and stained with PE-labeled anti Thy1.2-antibody (“53-2-1” model, BD Pharmingen). By dividing the number of Thy1.2-positive cells (T cells) in the lower chamber by the number of Thy1.2-positive cells (T cells) put into the transwell, the proportion of T cells having moved (migration of T cells (%)) was calculated. More specifically, first, mouse spleen cells (1×10^7 cells/mL) were cultured for 1 hour at 37° C. in 0.5% BSA-containing RPMI-1640 (transwell medium) in the presence of various steroid compounds at the concentration of 12.5 μM or in the presence of DMSO alone (control). The concentration of DMSO was adjusted such that the final concentration of DMSO became 0.2% in all samples. Then, by performing the transwell assay as described above, the effects of various steroid compounds on the migratory responses of T cells to CCL21 (300 ng/mL) were examined by comparison.

SMILES: CC(C)CCC[C@@H](C)[C@H]1CC[C@H]2[C@@H]3CC=C4C[C@@H](OS(=O)(=O)O)CC[C@]4(C)[C@H]3CC[C@]12C [C3S, cholesterol 3-sulfate]
- migration of T cells in response to CCL21 (6.25 μM): inhibited to the level of T cells derived from DOCK2 knockout mouse
- migration of T cells in response to CCL21 (12.5 μM, Experimental Example 6): specifically inhibits the migration of T cells
- migration of T cells in response to CCL21 (predetermined concentrations, Experimental Example 5): markedly inhibited
